Reference: ChEMBL document CHEMBL4350985, “1,3-Dioxane as a scaffold for potent and selective 5-HT1AR agonist with in-vivo anxiolytic, anti-depressant and anti-nociceptive activity” (Eur J Med Chem, 2019)
The source made the active and inactive calls. The rule behind the calls is not given here.

Assays:
[1] = molecular target: T1, 5-hydroxytryptamine receptor 1A (Homo sapiens) (UniProt P08908); settings: HeLa
T1 sequence (whole entry): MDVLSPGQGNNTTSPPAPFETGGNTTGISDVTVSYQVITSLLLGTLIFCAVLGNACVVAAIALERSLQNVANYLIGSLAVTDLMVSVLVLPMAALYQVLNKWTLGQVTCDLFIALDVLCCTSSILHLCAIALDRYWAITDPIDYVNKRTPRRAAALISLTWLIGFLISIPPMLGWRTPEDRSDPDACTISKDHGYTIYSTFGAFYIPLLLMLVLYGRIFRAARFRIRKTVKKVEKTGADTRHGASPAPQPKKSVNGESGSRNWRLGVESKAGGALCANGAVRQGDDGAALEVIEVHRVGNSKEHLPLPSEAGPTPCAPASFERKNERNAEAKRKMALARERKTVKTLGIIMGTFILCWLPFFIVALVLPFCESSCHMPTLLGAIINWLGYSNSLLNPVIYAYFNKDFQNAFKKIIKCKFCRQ
Description: Agonist activity at human recombinant 5HT1A receptor expressed in human HeLa cells assessed as increase in [35S]GTPgammaS binding incubated for 20 mins by liquid scintillation counter

[2] = molecular target: T2, Alpha-1B adrenergic receptor (Homo sapiens, UniProt P35368); assay: Displacement of [3H] prazosin from human cloned adrenoceptor alpha 1B expressed in CHO cell membrane incubated for 30 mins by liquid scintillation counter
T2 sequence (P35368 whole entry): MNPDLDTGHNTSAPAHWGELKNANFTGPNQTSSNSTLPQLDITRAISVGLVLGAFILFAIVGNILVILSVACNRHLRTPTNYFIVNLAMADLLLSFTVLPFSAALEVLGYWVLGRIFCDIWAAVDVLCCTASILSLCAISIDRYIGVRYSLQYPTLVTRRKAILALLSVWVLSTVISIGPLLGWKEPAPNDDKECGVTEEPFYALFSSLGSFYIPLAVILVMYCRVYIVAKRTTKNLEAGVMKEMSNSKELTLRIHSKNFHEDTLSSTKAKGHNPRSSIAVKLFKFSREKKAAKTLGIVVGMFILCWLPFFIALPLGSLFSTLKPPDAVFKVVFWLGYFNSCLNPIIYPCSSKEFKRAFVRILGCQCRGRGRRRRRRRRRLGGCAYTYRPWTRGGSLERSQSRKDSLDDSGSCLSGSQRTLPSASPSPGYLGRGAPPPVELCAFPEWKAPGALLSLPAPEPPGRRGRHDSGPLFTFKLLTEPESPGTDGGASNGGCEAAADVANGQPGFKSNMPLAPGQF

[3] = molecular target: T3, Alpha-1A adrenergic receptor (Rattus norvegicus) (UniProt P43140); assay: Antagonist activity at alpha-1a adrenergic receptor in Wistar rat prostatic vas deferens assessed as inhibition of (-)-noradrenaline-induced contraction
T3 sequence (whole entry): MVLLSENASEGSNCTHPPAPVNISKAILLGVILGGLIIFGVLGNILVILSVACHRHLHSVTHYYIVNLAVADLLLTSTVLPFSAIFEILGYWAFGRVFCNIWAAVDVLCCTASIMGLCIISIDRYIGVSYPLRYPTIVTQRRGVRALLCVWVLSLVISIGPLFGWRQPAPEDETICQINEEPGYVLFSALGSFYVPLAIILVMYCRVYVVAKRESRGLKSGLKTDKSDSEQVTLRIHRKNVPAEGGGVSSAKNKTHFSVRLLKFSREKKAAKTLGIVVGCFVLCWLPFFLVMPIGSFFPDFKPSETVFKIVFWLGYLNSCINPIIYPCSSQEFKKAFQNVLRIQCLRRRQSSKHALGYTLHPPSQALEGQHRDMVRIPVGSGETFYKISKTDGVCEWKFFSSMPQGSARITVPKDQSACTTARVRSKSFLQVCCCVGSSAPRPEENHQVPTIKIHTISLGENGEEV

[4] = Half life in Sprague-Dawley rat brain at 10 mg/kg, po measured after 15 to 45 mins by LC/MS-MS analysis; format: ADME, organism-based
[5] = Half life in Sprague-Dawley rat plasma at 10 mg/kg, po measured upto 480 mins by LC/MS-MS analysis; format: ADME, organism-based
[6] = AUC (0 to infinity) in Sprague-Dawley rat brain at 10 mg/kg, po measured upto 480 mins by LC/MS-MS analysis; format: ADME, organism-based; set-up: dose 10 mg/kg, time infinity, route oral; settings: in vivo, 8 h
[7] = AUC (0 to infinity) in Sprague-Dawley rat plasma at 10 mg/kg, po measured upto 480 mins by LC/MS-MS analysis; format: ADME, organism-based; set-up: dose 10 mg/kg, route oral, time infinity; settings: in vivo, 8 h
[8] = tested on: Rattus norvegicus; assay: Anxiolytic activity at Sprague-Dawley rat assessed as increase in time spent in open arm at 20 mg/kg, po by EPM test relative to control; format: functional
[9] = tested on: Mus musculus; assay: Antinociceptive activity in formalin-induced nociception pain Swiss […] mouse model assessed as perception of II phase of noxious stimulus at 10 mg/kg, ip co-administered with 3 mg/kg, ip 5-HT1AR antagonist WAY-100635 by formalin test; format: functional, organism-based
[10] = Half life in Sprague-Dawley rat brain at 10 mg/kg, po measured after 45 to 480 mins by LC/MS-MS analysis; format: ADME, organism-based
[11] = Apparent permeability from basolateral to apical side in dog MDCK2-MDR1 cells incubated for 120 mins by UV-visible spectrophotometry; format: ADME, cell-based, Canis lupus familiaris; settings: MDCK-MDR1
[12] = tested on: SH-SY5Y; assay: Cytotoxicity against human SH-SY5Y cells assessed as reduction in cell viability incubated for 24 hrs by MTT assay; format: cell-based
[13] = tested on: SH-SY5Y; assay: Neuroprotective activity against oligomycin A-induced cell death in human SH-SY5Y cells at 0.1 uM incubated for 24 hrs by MTT assay; format: functional
[14] = tested on: Rattus norvegicus; assay: Antidepressant activity in Sprague-Dawley rat assessed as decrease in time of immobilization at 10 and 20 mg/kg, po by forced swim test; format: functional, organism-based
[15] = Apparent permeability from apical to basolateral side in dog MDCK2-MDR1 cells incubated for 120 mins by UV-visible spectrophotometry; format: ADME, cell-based, Canis lupus familiaris; settings: MDCK-MDR1
[16] = Efflux ratio of apparent permeability from basolateral to apical side over apical to basolateral side in dog MDCK2-MDR1 cells incubated for 120 mins by UV-visible spctrophotometry; format: ADME, cell-based, Canis lupus familiaris; settings: MDCK-MDR1
[17] = AUC (0 to t) in Sprague-Dawley rat plasma at 10 mg/kg, po measured upto 480 mins by LC/MS-MS analysis; format: ADME, organism-based; settings: in vivo, 8 h
[18] = tested on: SH-SY5Y; assay: Neuroprotective activity against rotenone-induced cell death in human SH-SY5Y cells at 1 uM incubated for 24 hrs by MTT assay; format: functional
[19] = tested on: SH-SY5Y; assay: Neuroprotective activity against rotenone-induced cell death in human SH-SY5Y cells at 0.1 uM incubated for 24 hrs by MTT assay; format: functional
[20] = tested on: Mus musculus; assay: Antinociceptive activity in formalin-induced nociception pain Swiss […] mouse model assessed as decrease in perception of II phase of noxious stimulus at 10 mg/kg, ip by formalin test; format: functional, organism-based
[21] = tested on: Rattus norvegicus; assay: Anxiolytic activity at Sprague-Dawley rat assessed as increase in time spent in open arm at 10 mg/kg, po by EPM test relative to control; format: functional
[22] = tested on: Rattus norvegicus; assay: Anxiolytic activity at Sprague-Dawley rat assessed as increase in number of open arm entries at 10 to 20 mg/kg, po by EPM test; format: functional, organism-based
[23] = tested on: Rattus norvegicus; assay: Anxiolytic activity in at Sprague-Dawley rat assessed as increase in time spent in central area of open field at 10 mg/kg, po by open field test; format: functional, organism-based

| SMILES | pD2 [1] | Ki [2] [nM] | pKb [3] | also measured |
| --- | --- | --- | --- | --- |
| COc1ccccc1OCCNCCOC(c1ccccc1)c1ccccc1 | 7.38 | 3020 | 6.18 |  |
| OCC(CNCCOc1ccccc1)OC(c1ccccc1)c1ccccc1 (stereo not drawn) | 7.51 | 2290 | < 5 |  |
| COc1ccccc1OCCNCCC1COC(c2ccccc2)(c2ccccc2)O1 (stereo not drawn) | 6.16 | 14.8 | 6.74 |  |
| c1ccc(OCCNCC2CCOC(c3ccccc3)(c3ccccc3)O2)cc1 (stereo not drawn) | 7.85 | 56.2 | 6.12 |  |
| COc1ccccc1OCCNCC(CO)OC(c1ccccc1)c1ccccc1 (stereo not drawn) | 7.53 | 91.2 | 6.51 |  |
| COc1ccccc1OCCNCC[C@@H]1CO[C@H](C(c2ccccc2)c2ccccc2)O1 (relative stereo) | 5.86 | 64.6 | 6.58 |  |
| COc1ccccc1OCCNCC1COC(c2ccccc2)(c2ccccc2)OC1.O=C(O)C(=O)O | 9.22 | 31.6 | 5.98 | half-life [4]: 6.2 min; half-life [5]: 1.71 h; AUC [6]: 7173.4 nmol·min/g; AUC [7]: 18.1 nmol·min/g; Activity [8]: 18%; inhibition [9]: inactive; half-life [10]: 2.37 h; Papp B→A at 2 h [11]: 12.6 ×10⁻⁶ cm/s; IC50 [12]: 31200 nM; Activity [13]: 69%; inhibition [14]: Active; Papp A→B at 2 h [15]: 26 ×10⁻⁶ cm/s; efflux ratio at 2 h [16]: 0.49; AUCt [17]: 17.4 nmol·min/g; Activity [18]: 61%; Activity [19]: 63%; inhibition [20]: Active; Activity [21]: 20%; Activity [22]: Active; Activity [23]: Active |
| COc1ccccc1OCCNCC1CCOC(c2ccccc2)(c2ccccc2)O1 (stereo not drawn) | 8.49 | 15.8 | 6.99 |  |
| c1ccc(OCCNCCOC(c2ccccc2)c2ccccc2)cc1 | 7.85 | 25.1 | 7.65 |  |
| c1ccc(OCCNCC2COC(c3ccccc3)(c3ccccc3)OC2)cc1 | 5.87 | 282 | 5.52 |  |
| COc1ccccc1OCCNCC[C@H]1CO[C@H](C(c2ccccc2)c2ccccc2)O1 (relative stereo) | 6.24 | 30.9 | 6.23 |  |
